What was measured:
Diabetic Hamster [1] = assay: Single dose efficacy on glucose tolerance (OGTT) in diabetic hamster; format: in vivo; details: Mesocricetus auratus, single oral dose 38 mg/kg, read-out: Decrease in AUC of glucose % change w.r.t. vehicle control group
Method: i) Evaluation of Single Dose Efficacy of Test Compounds on Glucose Tolerance:
Thus efficacy can be assessed through the effect of test compounds on lowering of plasma glucose during OGTT through stimulating glucose stimulated insulin secretion.
The potential of test compounds in lowering of Plasma Glucose was evaluated in Oral glucose tolerance test (OGTT) in Diabetic Hamster Model, where diabetes has been induced by administration of low dose of Streptozotocin (STZ) to the High fat diet (HFD) fed glucose intolerant animals. The diabetic hamsters show impaired glucose stimulated insulin secretion and higher plasma glucose excursions than the normal animals, which remains elevated beyond 2 hrs post glucose load. Thus the animal model can be used for evaluating the potential of test compounds to lower plasma glucose through stimulating glucose stimulated insulin secretion. On the day of study post 6 hrs of fasting, test compounds or vehicle was administered orally at dose volume of 2 ml/kg to the hamsters of the respective treatment groups. Subsequent to dosing, a pre-glucose load blood sample was taken. A glucose load of 40% solution at 5 ml/Kg dose volume was administered orally. Blood samples through retroorbital plexus were taken at 15, 30 60 & 120 min. post glucose load and plasma was separated for glucose measurement. Post glucose load percentage change in plasma glucose and AUC of % change glucose by the treatment was assessed.

Diabetic Hamster [2] = assay: Efficacy study on repeated dosing in diabetic hamster; format: in vivo; details: 2 weeks; for HOMA-IR: from fasting glucose and insulin; for Oxygen consumption: indirect calorimetry over 21 hrs
Method: (§1) ii) Evaluation of Efficacy of Test Compounds on Repeated Dosing in Diabetic Hamster and DIO Mice. […]
a) Efficacy Study in Diabetic Hamster
Diabetic hamsters were randomized to two treatment groups viz. vehicle treated and test compound treated group. Then the animals were treated with compound 7 of present invention or vehicle for 2 weeks to assess the efficacy potential of the compound. Effect of treatment on glucose excursion and insulin secretion during OGTT, change in body weight & fasting and random plasma triglycerides (TG) was evaluated during the treatment period. The effect of repeated administration of compound on energy expenditure was evaluated through monitoring oxygen consumption (VO2) over 21 hrs period by indirect calorimetry (Oxymax System, Columbus Instruments). HOMA-IR an index of insulin resistance was estimated using fasting glucose and insulin levels estimated during OGTT.
Similarly, the study was conducted using compound no 50 of the present invention for the duration of four week period in Diabetic hamsters.

human TGR5 [3] = biological target: T1, human TGR5 (Homo sapiens, UniProt Q8TDU6); assay: cAMP Responsive Element (CRE)-Reporter Assay; format: cell-based; details: luciferase activity relative to vehicle control, five hours, CHO cells transfected with human TGR5 and CRE-luciferase
T1 construct: host or cells: CHO cells (ATCC)
T1 sequence (Q8TDU6 1-330): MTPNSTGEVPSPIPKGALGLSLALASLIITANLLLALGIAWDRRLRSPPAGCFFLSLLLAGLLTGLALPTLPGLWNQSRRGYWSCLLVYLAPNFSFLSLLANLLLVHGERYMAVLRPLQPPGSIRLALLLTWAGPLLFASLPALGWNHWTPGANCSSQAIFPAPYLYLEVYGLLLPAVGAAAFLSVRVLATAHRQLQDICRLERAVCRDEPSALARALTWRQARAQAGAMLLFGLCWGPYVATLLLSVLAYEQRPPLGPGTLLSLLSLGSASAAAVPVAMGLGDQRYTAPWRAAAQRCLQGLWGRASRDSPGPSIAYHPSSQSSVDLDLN
In short: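 CHO cells were transiently co-transfected with human TGR5 and a CRE-luciferase reporter, then treated with test compounds at 10 μM or vehicle for five hours. Luciferase activity in lysates was read and expressed as fold induction over vehicle, scored + (1.5-2), ++ (2-3), +++ (3-4), ++++ (>4 fold).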

[4] = system: Human enteroendocrine cell-line (NCI-H716); assay: Measurement of Glucagon Like Peptide-1 (GLP-1) secretion; format: cell-based; details: NCI-H716 cells, one hour, with respect to vehicle control
Method: (C) Measurement of Glucagon Like Peptide-1 (GLP-1):
Human enteroendocrine cell-line (NCI-H716) were incubated with vehicle or test compounds for one hour. At the end of incubation period, levels of secreted GLP-1 in culture medium were measured by GLP-1 ELISA kit (Millipore). Results are summarized as fold increase in GLP secretion with respect to vehicle control in Table 4.

human TGR5 [5] = biological target: T1, human TGR5; assay: cAMP Measurement Assay (Alphascreen); format: cell-based; details: cAMP levels, CHO cells transfected with human TGR5, one hour
Method: (B) cAMP Measurement Assay:
CHO cells (ATCC) were transfected with human TGR5 vector (oriGene). Transfected cells were treated with vehicle control or test compounds for one hour and then lysed. Levels of cAMP were measured in cell lysates employing Alphascreen cAMP assay kit (Perkin Elmer) and results were expressed EC50 values which are summarized in Table 3.

DIO mice = assay: Efficacy study on repeated dosing in DIO mice; format: in vivo; details: 1.5 mg/kg, od; for Oxygen consumption: indirect calorimetry over 24 hrs; for % Change in body wt from basal: repeated administration
Method: as §1
b) Efficacy Study in DIO Mice
Male C57B1/6J mice were made insulin resistant by feeding on High fat diet (45.5% Kcal from Fat, Research Diet) from the age of 6-8 week onwards. After being on High fat diet for 6-8 weeks the animals with similar body weights & fasting plasma glucose were further randomized into treatment groups. Then the animals were treated with compounds 7 to assess the efficacy potential during treatment duration. Effect of treatment on glucose excursion and insulin secretion during OGTT, Fasting Plasma Glucose & Insulin, lipid profile and body weight were evaluated. The compound for enhancing energy expenditure was evaluated by monitoring oxygen consumption (VO2) and carbon dioxide release (VCO2) over 24 hrs period by indirect calorimetry (Oxymax System, Columbus Instruments).
Similarly, the study was conducted in DIO mice with compound no 50 of the present invention.

[6] = 20 mg/kg, po, bid, listed as compound no. 7, 20 mg/kg
[7] = listed as compound no. 7, 1.5 mg/kg

Q: For `CN(C(=O)c1c(-c2ccc(F)cc2)nc2ncccn12)c1ccc(Cl)cc1` [Compound no. 7, N-(4-chlorophenyl)-2-(4-fluorophenyl)-N-methylimidazo[1,2-a]pyrimidine-3-carboxamide], which inhibition in vivo at 38 mg/kg (Diabetic Hamster [1]) is on record?
A: 39%

Q: What about the “% Change in body wt fro basal” value (Diabetic Hamster [2]; 20 mg/kg, po, bid) of the same compound?
A: −5.2 ± 1.6%

Q: And the “AUC_Insulin % change during OGTT” value (Diabetic Hamster [2]; 20 mg/kg, po, bid)?
A: 2280.6 ± 428.8

Q: And the “AUC_glucose % change during OGTT” value (Diabetic Hamster [2]; 20 mg/kg, po, bid)?
A: 12714.43 ± 912

Q: What about the “Fasting plasma TG” value (Diabetic Hamster [2]; 20 mg/kg, po, bid) of the same compound?
A: 188.35 ± 3.7 mg/dL

Q: And the “Random plasma T” value (Diabetic Hamster [2]; 20 mg/kg, po, bid)?
A: 344.38 ± 90.3 mg/dL

Q: And the HOMA-IR (Diabetic Hamster [2]; 20 mg/kg, po, bid)?
A: 15.6 ± 2.1

Q: What about the HOMA-IR (Diabetic Hamster [2]; [6]) of the same compound?
A: decrease in HOMA-IR

Q: And the Oxygen consumption (Diabetic Hamster [2]; 20 mg/kg, po, bid)?
A: 1353.06 ± 38.3 mL/kg/h

Q: What about the Oxygen consumption (Diabetic Hamster [2]; [6]) of the same compound?
A: increased energy expenditure

Q: What about the “% Change in body wt fro basal” value (Diabetic Hamster [2]; [6]) of the same compound?
A: reduced body weight

Q: What about the “AUC_Insulin % change during OGTT” value (Diabetic Hamster [2]; [6]) of the same compound?
A: improved insulin secretion

Q: What about the “AUC_glucose % change during OGTT” value (Diabetic Hamster [2]; [6]) of the same compound?
A: reduced glucose excursion

Q: What about the “Fasting plasma TG” value (Diabetic Hamster [2]; [6]) of the same compound?
A: decreased plasma TG levels

Q: What about the “decrease in LDL” value (Diabetic Hamster [2]; compound no. 7 repeated dosing) of the same compound?
A: 14%

Q: What about the “decrease in non HDL” value (Diabetic Hamster [2]; compound no. 7 repeated dosing) of the same compound?
A: 24%

Q: And the “improvement in HDL:LDL ratio” value (Diabetic Hamster [2]; compound no. 7 repeated dosing)?
A: 24%

Q: What about the “increase in HDL” value (Diabetic Hamster [2]; compound no. 7 repeated dosing) of the same compound?
A: 7%

Q: What about the fold induction at 10 µM (human TGR5 [3]) of the same compound?
A: > 4

Q: What about the “Fold increase in GLP Release” value [4] of the same compound?
A: 3.72 fold

Q: What about the EC50 (human TGR5 [5]) of the same compound?
A: 90 nM

Q: And the “AUC_Insulin % change during OGTT” value (DIO mice)?
A: 5431.0 ± 920.9

Q: What about the “AUC_glucose % change during OGTT” value (DIO mice) of the same compound?
A: 4526.7 ± 876.8

Q: What about the “Fasting plasma TG” value (DIO mice) of the same compound?
A: 40.4 ± 2.3 mg/dL

Q: What about the HOMA-IR (DIO mice) of the same compound?
A: 4.7 ± 1.68

Q: And the Oxygen consumption (DIO mice)?
A: 51.938 ± 1.768 mL/min/kg

Q: And the Oxygen consumption (DIO mice; [7])?
A: increased energy expenditure

Q: And the “AUC_Insulin % change during OGTT” value (DIO mice; [7])?
A: improved insulin secretion

Q: And the “AUC_glucose % change during OGTT” value (DIO mice; [7])?
A: reduced glucose excursion

Q: What about the “Fasting plasma TG” value (DIO mice; [7]) of the same compound?
A: decreased plasma TG levels

Q: What about the HOMA-IR (DIO mice; [7]) of the same compound?
A: decrease in HOMA-IR

Q: And the “% Change in body wt from basal” value (DIO mice)?
A: −3.19 ± 1.32%

Q: What about the “% Change in body wt from basal” value (DIO mice; [7]) of the same compound?
A: reduced body weight

— patent US20150126530A1, “Novel Substituted Imidazopyrimidines as Gpbar1 Receptor Modulators” (Torrent Pharmaceuticals Limited., priority 2011, published 2015)
